The record followed here is patent US8637536B2, “Pyrimidinone compounds for use in the treatment of diseases or conditions mediated by Lp-PLA2” (Glaxo Group Limited, priority 2010, dated 2014).

Molecules are shown by their SMILES. Structures can show the parent of a compound that is named as a salt. Bounds are passed on as bounds.

The target of one experiment is T1, Lp-PLA2 from plasma (pooled human plasma) (Homo sapiens, UniProt Q13093).
T1 construct: 8 μL pooled human plasma; from tissue; host or cells: pooled human plasma
T1 sequence (Q13093 22-441): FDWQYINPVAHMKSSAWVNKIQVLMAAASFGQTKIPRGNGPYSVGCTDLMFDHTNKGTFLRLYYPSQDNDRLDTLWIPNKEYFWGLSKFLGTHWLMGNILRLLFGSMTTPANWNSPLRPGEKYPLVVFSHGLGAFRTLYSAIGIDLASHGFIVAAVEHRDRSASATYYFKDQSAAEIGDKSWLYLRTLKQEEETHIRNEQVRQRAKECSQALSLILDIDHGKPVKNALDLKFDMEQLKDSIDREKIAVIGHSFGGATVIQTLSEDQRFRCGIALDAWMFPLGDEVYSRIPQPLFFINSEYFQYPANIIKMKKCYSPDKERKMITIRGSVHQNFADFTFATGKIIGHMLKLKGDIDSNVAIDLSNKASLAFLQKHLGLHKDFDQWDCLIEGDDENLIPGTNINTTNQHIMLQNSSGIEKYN
Kind of experiment: Lp-PLA2 human plasma assay (Thio-PAF assay). The following applies: text thresholds, read-out: pIC50 values in the thio-PAF assay (converted). It is filed as biochemical. An excerpt:
(3) Lipoprotein-Associated Phospholipase A2 (Lp-PLA2) Human Plasma Assay (Also Referred to as “Thio-PAF Assay”)
The human plasma assay utilizes a thioester analog of PAF (phosphatidylcholine), where hydrolysis yields to the formation of a phospholipid containing a free thiol group. The amount of thiol is quantitated continuously by reacting with CPM (7-diethylamino-3-(4′-maleimidylphenyl)-4-methylcoumarin), a maleimide which increases in fluoresence after Michael addition of thiols. This assay may detect the activity of Lp-PLA2 from plasma, as determined by specific inhibition by Lp-PLA2 inhibitors.
The thio-PAF assay was run as a quenched 15 μL assay. Compounds source plate was prepared by making 1:3 (by volume) serial dilution of the compounds into pure DMSO on 384-well microplate. 0.01 μL of compounds on compound source plate were transferred to 384 well Greiner 784076 (black) low-volume plates by ECHO liquid dispenser. 8 μL pooled human plasma, which was previously aliquoted and frozen, was added. Plates were centrifuged for 10 sec at 500 rpm. After 30 minutes preincubation, 2 μL of substrate (2.5 mM thio-PAF, 3.2 mM NEM (N-ethylmaleimide) [made fresh daily in DMSO], and 32 μM CPM [from a DMSO stock] in assay buffer of 50 mM HEPES, pH7.4, 150 mM NaCl, 1 mM CHAPS was added to 384 well Greiner 784076 (black) low-volume plates by BRAVO liquid handling station. Plates were centrifuged for 10 sec at 500 rpm. Plate was covered to protect from light and incubated for 2 min at room temperature. Reaction was quenched with 5 μL of 5% aqueous trifluoroacetic acid (TFA). Plates were covered to protect from light and incubated for 40 min at room temperature. Plates were read at ex: 380/em: 485 using-Envision microplate reader. PIC50 data, curve and QC analysis was conducted by using XLFit module in Excel.
Regarding `COc1ncc(Cc2cn(C)c(CCc3ccc(Oc4ccc(Cl)c(C(F)(F)F)c4)cc3)nc2=O)cn1` [E3, 2-[2-(4-{[4-Chloro-3-(trifluoromethyl)phenyl]oxy}phenyl)ethyl]-1-methyl-5-{[2-(methyloxy)-5-pyrimidinyl]methyl}-4(1H)-pyrimidinone], the IC50 was at most 1000 nM.
Regarding `Cn1cc(Cc2cncnc2)c(=O)nc1CCc1ccc(Oc2ccc(Cl)c(C(F)(F)F)c2)cc1` [E4, 2-[2-(4-{[4-Chloro-3-(trifluoromethyl)phenyl]oxy}phenyl)ethyl]-1-methyl-5-(5-pyrimidinylmethyl)-4(1H)-pyrimidinone], the IC50 is at most 1000 nM.
On the same count and under the same terms, the value for `COc1ncc(Cc2c[nH]c(NCCc3ccc(Oc4ccc(Cl)c(C(F)(F)F)c4)cc3)nc2=O)cn1` [E9, 2-{[2-(4-{[4-Chloro-3-(trifluoromethyl)phenyl]oxy}phenyl)ethyl]amino}-5-{[2-(methyloxy)-5-pyrimidinyl]methyl}-4(1H)-pyrimidinone] was at most 100 nM; that for `N#Cc1cc(CSc2nc(=O)c(Cc3cncnc3)c[nH]2)ccc1Oc1ccc(C(F)(F)F)cn1` [E73, 5-({[4-oxo-5-(5-pyrimidinylmethyl)-1,4-dihydro-2-pyrimidinyl]thiol}methyl)-2-{[5-(trifluoromethyl)-2-pyridinyl]oxy}benzonitrile] was at most 100 nM.
The same measure, in the same setting: for `Cn1cc(Cc2cncnc2)c(=O)nc1SCc1ccc(Oc2ccc(Cl)c(C(F)(F)F)c2)c(C#N)c1` [E79, 2-{[4-chloro-3-(trifluoromethyl)phenyl]oxy}-5-({[1-methyl-4-oxo-5-(5-pyrimidinylmethyl)-1,4-dihydro-2-pyrimidinyl]thio}methyl)benzonitrile] the value was at most 100 nM; for `Cn1cc(Cc2cncnc2)c(=O)nc1SCc1ccc(Oc2ccc(F)c(C(F)(F)F)c2)c(C#N)c1` [E88, 2-{[4-fluoro-3-(trifluoromethyl)phenyl]oxy}-5-({[1-methyl-4-oxo-5-(5-pyrimidinylmethyl)-1,4-dihydro-2-pyrimidinyl]thio}methyl)benzonitrile], at most 100 nM.
As to `Cn1cc(Cc2cn(C)c(SCCc3ccc(Oc4cccc(C(F)(F)F)c4)c(C#N)c3)nc2=O)cn1` [E92, 5-[2-({1-methyl-5-[(1-methyl-1H-pyrazol-4-yl)methyl]-4-oxo-1,4-dihydro-2-pyrimidinyl}thio)ethyl]-2-{[3-(trifluoromethyl)phenyl]oxy}benzonitrile, trifluoroacetic acid salt], the IC50 is at most 100 nM.
For `Cn1cc(Cc2cncnc2)c(=O)nc1SCc1ccc(Oc2ccc(C(F)(F)F)cn2)c(C#N)c1` [E105, 5-({[1-methyl-4-oxo-5-(5-pyrimidinylmethyl)-1,4-dihydro-2-pyrimidinyl]thio}methyl)-2-{[5-(trifluoromethyl)-2-pyridinyl]oxy}benzonitrile], the IC50 is at most 100 nM.

A further experiment addresses T2, recombinant human Lp-PLA2 (Homo sapiens, UniProt Q13093).
T2 sequence (Q13093 22-441): T1 sequence (Q13093 22-441)
Nature of the experiment: Recombinant human Lp-PLA2 assay (rhLp-PLA2, PED6 assay). It is filed as biochemical. To be noted: text thresholds; upper limit for pIC50 in this assay is 9.3; read-out: pIC50 values in the PED6 assay (converted). An excerpt: (1) Recombinant Human Lp-PLA2 Assay (rhLp-PLA2) (Also Referred to as “PED6” Assay)
N-((6-(2,4-dinitrophenyl)amino)-hexanoyl)-2-(4,4-difluoro-5,7-dimethyl-4-bora-3a,4a-diaza-s-indacene-3-pentanoyl)-1-hexadecanoyl-sn-glycero-3-phosphoethanolamine, triethylammonium salt (PED6) is a commercially available fluorescently-labelled phospholipid, which is commercially available from Molecular Probes. There is a quenching […] position and a Bodipy fluorescein (FL) group in the sn2 position.
The PED6 assay was run as an unquenched 10 μL assay. Compounds source plate was prepared by making 1:3 (by volume) serial dilution of the compounds into pure DMSO on 384-well microplate. […] 5 μL of recombinant human Lp-PLA2 enzyme (2 nM rhLp-PLA2 in assay buffer of 50 mM HEPES, pH7.4, 150 mM NaCl, 1 mM CHAPS) was added to each well of the plate with compounds. Plates were centrifuged for 10 sec at 500 rpm. […] Plates were centrifuged for 10 sec at 500 rpm. Plate was covered to protect from light and incubated for 20 min at room temperature. […] PIC50 data, curve and QC analysis was conducted by using XL fit module in Excel.
Take `CCc1cn(C)c(SCc2ccc(Oc3ccc(Cl)c(C(F)(F)F)c3)c(C#N)c2)nc1=O` [E64, 2-{[4-chloro-3-(trifluoromethyl)phenyl]oxy}-5-{[(5-ethyl-1-methyl-4-oxo-1,4-dihydro-2-pyrimidinyl)thio]methyl}benzonitrile]: the IC50 was at most 10 nM.
For the molecule `COc1ncc(Cc2c[nH]c(SCc3ccc(Oc4ccc(Cl)c(C(F)(F)F)c4)cc3)nc2=O)cn1` [E74, 2-{[(4-{[4-chloro-3-(trifluoromethyl)phenyl]oxy}phenyl)methyl]thio}-5-{[2-(methyloxy)-5-pyrimidinyl]methyl}-4(1H)-pyrimidinone], the IC50 was at most 1 nM.
Turning to `COc1ncc(Cc2c[nH]c(SCc3ccc(Oc4ccc(F)c(C(F)(F)F)c4)c(C#N)c3)nc2=O)cn1` [E89, 2-{[4-fluoro-3-(trifluoromethyl)phenyl]oxy}-5-{[(5-{[2-(methyloxy)-5-pyrimidinyl]methyl}-4-oxo-1,4-dihydro-2-pyrimidinyl)thio]methyl}benzonitrile], the IC50 is at most 1 nM.
As to `N#Cc1cc(CSc2nc(=O)c(Cc3cncnc3)c[nH]2)ccc1Oc1cccc(C(F)(F)F)c1` [E96, 5-({[4-oxo-5-(5-pyrimidinylmethyl)-1,4-dihydro-2-pyrimidinyl]thio}methyl)-2-{[3-(trifluoromethyl)phenyl]oxy}benzonitrile], the IC50 is at most 1 nM.
Take `COc1ncc(Cc2c[nH]c(SCc3ccc(Oc4cccc(C(F)(F)F)c4)c(C#N)c3)nc2=O)cn1` [E100, 5-{[(5-{[2-(methyloxy)-5-pyrimidinyl]methyl}-4-oxo-1,4-dihydro-2-pyrimidinyl)thio]methyl}-2-{[3-(trifluoromethyl)phenyl]oxy}benzonitrile]: the IC50 was at most 1 nM.
As to `Cn1cc(Cc2cncnc2)c(=O)nc1SCCc1ccc(Oc2ccc(Cl)c(C(F)(F)F)c2)cc1` [E116, 2-{[2-(4-{[4-chloro-3-(trifluoromethyl)phenyl]oxy}phenyl)ethyl]thio}-1-methyl-5-(5-pyrimidinylmethyl)-4(1H)-pyrimidinone], the IC50 was at most 1 nM.
Regarding `N#Cc1cc(CCSc2nc(=O)c(Cc3cncnc3)c[nH]2)ccc1Oc1ccc(Cl)c(C(F)(F)F)c1` [E118, 2-{[4-chloro-3-(trifluoromethyl)phenyl]oxy}-5-(2-{[4-oxo-5-(5-pyrimidinylmethyl)-1,4-dihydro-2-pyrimidinyl]thio}ethyl)benzonitrile], the IC50 was at most 1 nM.
Still for that read-out and setting: for `COc1ncc(Cc2c[nH]c(SCCc3ccc(Oc4ccc(Cl)c(C(F)(F)F)c4)c(C#N)c3)nc2=O)cn1` [E119, 2-{[4-chloro-3-(trifluoromethyl)phenyl]oxy}-5-{2-[(5-{[2-(methyloxy)-5-pyrimidinyl]methyl}-4-oxo-1,4-dihydro-2-pyrimidinyl)thio]ethyl}benzonitrile] the value was at most 1 nM; for `COc1ncc(Cc2c[nH]c(OCCc3ccc(Oc4ccc(C(F)(F)F)cn4)cc3)nc2=O)cn1` [E137, 5-((2-methoxypyrimidin-5-yl)methyl)-2-(4-((5-(trifluoromethyl)pyridin-2-yl)oxy)phenethoxy)pyrimidin-4(1H)-one], at most 10 nM.
The same measure, in the same setting: for `COc1ncc(Cc2c[nH]c(OCCc3ccc(Oc4c(F)cc(Cl)cc4F)cc3)nc2=O)cn1` [E181, 2-(4-(4-chloro-2,6-difluorophenoxy)phenethoxy)-5-((2-methoxypyrimidin-5-yl)methyl)pyrimidin-4(1H)-one] the value was at most 10 nM.

The same experiment, now with this note: upper limit for pIC50 obtained in this PED6 assay is 9.3; read-out: rhLp-PLA2 (PED6 assay) (pIC50) (converted).
`COc1ncc(Cc2c[nH]c(SCc3ccc(Oc4ccc(Cl)c(C(F)(F)F)c4)cc3)nc2=O)cn1` [E74, 2-{[(4-{[4-chloro-3-(trifluoromethyl)phenyl]oxy}phenyl)methyl]thio}-5-{[2-(methyloxy)-5-pyrimidinyl]methyl}-4(1H)-pyrimidinone]: the IC50 was 0.631 nM.
In the case of `Cn1cc(Cc2c[nH]c(SCc3ccc(Oc4ccc(Cl)c(C(F)(F)F)c4)c(C#N)c3)nc2=O)c2ccccc21` [E81, 2-(4-chloro-3-(trifluoromethyl)phenoxy)-5-(((5-((1-methyl-1H-indol-3-yl)methyl)-4-oxo-1,4-dihydropyrimidin-2-yl)thio)methyl)benzonitrile], the IC50 is 25.1 nM.
With `Cn1cc(Cc2c[nH]c(SCCc3ccc(Oc4ccc(Cl)c(C(F)(F)F)c4)cc3)nc2=O)cn1` [E112], the IC50 was at most 0.501 nM.
As for `O=c1nc(OCCc2ccc(Oc3ccc(Cl)c(C(F)(F)F)c3)cc2)[nH]cc1Cc1c(F)cc(F)cc1F` [E129, 2-{[2-(4-{[4-chloro-3-(trifluoromethyl)phenyl]oxy}phenyl)ethyl]oxy}-5-[(2,4,6-trifluorophenyl)methyl]-4(1H)-pyrimidinone], the IC50 is 3.98 nM.
